Data from PMC4038613, “A New Class of Multimerization Selective Inhibitors of HIV-1 Integrase” (PLoS Pathogens, 2014).
Like-named read-outs stand apart in the source and are kept apart here.

Experiments:
IN-LEDGF/p75 = IN-LEDGF/p75 (Human immunodeficiency virus type 1 group M subtype B, UniProt P12497); experiment: HTRF-based IN-LEDGF/p75 binding assay; set-up: species or system HIV-1
Experimental: HTRF-based IN multimerization and IN-LEDGF/p75 binding assays were carried out as described previously [33].

HIV-1NL4-3 = experiment: microbe, parasite or virus in culture; assay type: cell-based
in vitro = assay type: cell-based
Experimental: The cytotoxcity assays were performed as described previously. The fitted dose-response curves were generated to calculate EC50 or CC50 using Origin software (OriginLab, Inc.).

HIV-1MJ4 = experiment: Antiviral assay against HIV-1 clade C (pMJ4); assay type: cell-based; settings: Human immunodeficiency virus 1, IN residue Ala125, read-out: IC50 for inhibition of HIV-1MJ4 replication
HIV-1 = experiment: Antiviral assay, late stage (inhibitor added to producer cells); assay type: cell-based; settings: Human immunodeficiency virus 1, virions prepared in presence of inhibitor, untreated target cells; called IC50
Experimental: Results represent mean ± SD from three independent experiments.
For late stage experiments, the progeny virions were prepared in the presence of the indicated concentrations of the test inhibitor or diluent control (DMSO) and were then used to infect untreated target cells.

[1] = tested on: VSV-G pseudotyped HIV-1-Luc in wild type HEK293T cells; experiment: microbe, parasite or virus in culture; assay type: cell-based; settings: Human immunodeficiency virus 1, HEK-293T
[2] = tested on: VSV-G pseudotyped HIV-1-Luc in PSIP1 KO HEK293T cells; experiment: microbe, parasite or virus in culture; assay type: cell-based; settings: for EC50: Human immunodeficiency virus 1, HEK-293T
HIV-1 virions [3] = assay type: cell-based; settings: virions produced in presence of 1 µM KF116
HIV-1 capsid (p24) = experiment: Sucrose density gradient fractionation of detergent-lysed virions; assay type: cell-based; settings: 1 µM KF116, fractions 18–20
Experimental: Cell-free virions were harvested, detergent-lysed, and separated on 30–70% linear sucrose density gradients. Twenty-one 0.5 ml fractions were collected from the top of the gradient and subjected to SDS-PAGE and immunoblotted with HIV-1 Gag antisera to monitor the distribution of HIV-1 capsid. […] (D) Quantitation of HIV-1 capsid (p24) signal intensity from (B) as measured by ImageJ software. Graph represents the relative distribution of HIV-1 capsid (p24) in each of the sucrose density gradient fractions.
Sucrose density gradient fractionation was carried out as described previously [74] with some modifications. Briefly, HIV-1 virions were produced in the presence of the inhibitor or diluent control (DMSO) and cell-free virions were concentrated over a 25% sucrose cushion by ultra-centrifugation at 28,000 rpm for 2 h at 4°C in SW41 rotor (Beckman). Pelleted virions were resuspended in 300 µl STE buffer (10 mM Tris pH 7.5, 100 mM NaCl, 1 mM EDTA), lysed with 0.5% Triton X100 for 2 minutes at room temperature. Lysed virions were loaded on 30–70% linear sucrose density gradients in STE buffer, and ultra-centrifuged at 28,500 rpm for 16 h at 4°C in SW41 rotor (Beckman). Twenty-one 0.5-ml fractions were collected from the top of the gradient and subjected to SDS-PAGE and immunoblotted with HIV-1 Gag antisera to monitor the distribution of HIV-1 capsid.

IN = target: T1, IN (Human immunodeficiency virus type 1 group M subtype B, UniProt P12497); experiment: DLS assay of recombinant IN multimerization; assay type: biochemical, HIV-1
T1 construct: DLS analysis of KF116-induced multimerization of recombinant IN
Experimental: (A) DLS analysis of KF116-induced multimerization of recombinant IN. […] The indicated volumes of cross-linked reaction products were resolved by SDS-PAGE and immunoblotted with HIV-1 IN antibody. The bands corresponding to IN “monomer”, “dimer”, and “higher order oligomers” are indicated.
DLS signals were recorded at room temperature using a Malvern Nano series zetasizer instrument.

[4] = tested on: LEDGF/p75-dependent HIV-1 integration; experiment: HIV-1 integration site distribution (ligation-mediated PCR, 454-pyrosequencing); assay type: cell-based
HIV-1 expression = assay type: cell-based; settings: for inhibition of HIV-1 expression: target cells
A128T IN HIV-1NL4-3 = experiment: A128T HIV-1 infectivity in TZM-bl cells; assay type: cell-based; settings: particles produced in presence of inhibitor
HIV-1 virions [5] = experiment: Virion RNA packaging; assay type: cell-based; settings: 1 µM KF116
Experimental: HEK293T cells (2×10^6 cells/100 mm culture dish in 10 ml of complete medium) were transfected with HIV-1 provirus (pNL4-3) and cultured for 24 h to ensure expression of the provirus as described above. Next, the cells were treated with the indicated inhibitor or diluent control (DMSO) for 1 h. The culture supernatant was replaced with fresh complete medium containing either the inhibitor or DMSO, and cells were then cultured for another 24 h to allow for the production of HIV-1 particles in the presence of the inhibitor or diluent control. The virus containing cell-free supernatant was collected, filtered through a 0.45 µm filter, and concentrated over a 25% sucrose cushion by ultra-centrifugation at 28,000 rpm for 2 h at 4°C in SW41 rotor (Beckman). […] RNA was isolated from the pelleted virions and subsequent cDNA preparations were used for gag quantitative PCR as described above. Relative virion RNA packaging was calculated by normalizing virion Gag RNA copy numbers to Gag p24.
In parallel, aliquots of cell-free virus-containing supernatant were used to measure the amount of viral particles produced using HIV-1 Gag p24 ELISA. Virion RNA packaging was calculated by normalizing virion Gag RNA copy numbers to Gag p24. […]

virion-associated RT = experiment: Virion-associated Reverse Transcriptase (RT) assay; assay type: biochemical, HIV-1; settings: virions produced with 1 µM KF116
Experimental: Virions generated in the presence of inhibitor or diluent control (DMSO) was concentrated over 25% sucrose cushion. The virion-associated RT activity assay was performed as described previously, [81] with minor changes. Briefly, equivalent amounts of concentrated virions (based on HIV-1 p24 ELISA) were incubated with RT buffer, containing 50 mM Tris (pH 7.8), 75 mM KCL, 5 mM MgCl2, 2 mM DTT, 0.05% Nonidet P-40 (v/v), 5 µg/ml Poly r(A). Poly d(T)12–18, and 10 µCi of α-^32P dTTP, in 35 µl final volume. The reactions were incubated at room temperature for 3 h. Duplicate 10 µl of the final reactions were blotted onto a 96-well DEAE Filtermat paper (Wallac-Perkin Elmer), dried, washed and processed as described previously.
The initiation of reverse transcription from total viral RNA was measured using an in vitro HIV-1 reverse transcription reaction, which extends tRNA^Lys3 primer on viral RNA template by +6-nt. The final reaction products were resolved by PAGE and detected by phosphorimager analysis. (Upper panel) A representative image of the 6-nt extension products is shown. (Lower panel) The bar graph represents quantification of bands from the upper panel using ImageJ software. The signal intensity obtained for the non-treated (DMSO) sample was set to 100%. […] Equivalent amounts of concentrated virions, based on HIV-1 p24 ELISA, were analyzed for virion-associated RT activity. […]

[6] = tested on: HIV-1 virions in HEK293T cells; experiment: Viral entry assay; assay type: cell-based; settings: virions produced with 1 µM KF116
[7] = Target, 5 µM, *** P<0.001 vs DMSO
[8] = target cells, 10 µM, *** P<0.001 vs DMSO

Cc1nc(-c2nc3ccc(Cl)cc3[nH]2)c(C)c(-c2ccccc2)c1C(OC(C)(C)C)C(=O)O (stereo not drawn) [KF116]
IC50 (IN-LEDGF/p75): 5030 ± 360 nM
IC50 (HIV-1NL4-3; Human immunodeficiency virus 1, read-out: Antiviral activity (IC50), HIV-1NL4-3, full replication cycle): ~24 nM
EC50 (HIV-1NL4-3; Human immunodeficiency virus 1, read-out: EC50, Full Replication Cycle, KF116 added to both producer and target cells, mean ± SD, three experiments): 24 nM
CC50 (in vitro): > 100000 nM
IC50 (HIV-1MJ4): 127 ± 10 nM
EC50 (HIV-1): ~30 nM
EC50 ([1]; read-out: EC50, WT producer cells): ~69 nM
EC50 ([1]; read-out: EC50, WT target cells): > 50000 nM
effect of complete loss of LEDGF/p75 protein in virus-producer cells on IC50 values [2]: did not alter
EC50 ([2]; read-out: EC50, KO producer cells): ~75 nM
EC50 ([2]; read-out: EC50, KO target cells): ~1400 nM
eccentric cores among mature virions (HIV-1 virions [3]): ~95%
reduction of HIV-1 capsid (p24) in higher density fractions (HIV-1 capsid (p24)): > 95%
DLS particle size diameter, 30 min (IN; 1 µM KF116, 200 nM IN): 1106 nm
DLS particle size diameter, 120 min (IN; 1 µM KF116, 200 nM IN): 1281 nm
DLS particle size diameter, immediately upon addition (2 minutes) (IN; 1 µM KF116, 200 nM IN): 142 nm
DLS signal of inhibitor alone (self-aggregation in aqueous solution) (IN; only KF116, no IN): no signal was recorded
% in RefSeq (HIV-1 integration frequency) ([4]; Producer, 100 nM): 82.67%
% in known genes (HIV-1 integration frequency) ([4]; Producer, 100 nM): 83.79%
% in RefSeq (HIV-1 integration frequency) [4, 7]: 81.17%
% in known genes (HIV-1 integration frequency) [4, 7]: 82.38%
% in RefSeq (HIV-1 integration frequency) [4, 8]: 83.17%
% in known genes (HIV-1 integration frequency) [4, 8]: 84.31%
inhibition of HIV-1 expression (HIV-1 expression; 5 µM): did not significantly inhibit HIV-1 expression
inhibition of HIV-1 expression (HIV-1 expression; 10 µM): did not significantly inhibit HIV-1 expression
reduction in target cell HIV-1 expression (HIV-1 expression; virus-producer cells treated with 0.1 µM): ~77%
A128T IN HIV-1NL4-3 replication in infected cells (A128T IN HIV-1NL4-3): effectively impaired
effect on viral genomic RNA packaging (HIV-1 virions [5]): did not affect
effect on virion-associated RT activities (virion-associated RT): no effects
effect on viral entry (incoming genomic RNA in target cells) [6]: does not significantly compromise viral entry
